Experimental data reported in patent US20160333419A1, “GENE SIGNATURES ASSOCIATED WITH SENSITIVITY TO MDM2 INHIBITORS” (DAIICHI SANKYO COMPANY, LIMITED, priority 2014, published 2016).

System: multi-cancer cell line panel
Experiment: OncoPanel cytotoxicity assay, whole panel summary
Type: cell-based, human
Experimental: This Example describes an evaluation of the effect of a representative small molecule MDM2i on the growth of cells in a multi-cancer cell line panel. In this Example, the MDM2 inhibitors used were Compound A and Compound B p-toluenensulfonate. The panel included 250 human cancer cell lines (OncoPanel™, Ricerca Biosciences, Painesville, Ohio) that were evaluated in a high content drug screening analysis. The relative IC50 values for the cell lines were determined.
Cells were grown in RPMI 1640, 10% FBS, 2 mM L-alanyl-L-Glutamine, 1 mM Na Pyruvate, or a special medium in a humidified atmosphere of 5% CO2 at 37° C. Cells were seeded into 384-well plates and incubated in a humidified atmosphere of 5% CO2 at 37° C. Test compounds were added 24 hours post cell seeding. At the same time, a time zero, untreated cell plate was generated as a control. After a 72 hour incubation period, cells were fixed and stained with nuclear dye to allow visualization of nuclei.
Compounds were serially diluted 3.16-fold and assayed over 10 concentrations of inhibitor in a final assay concentration of 0.1% DMSO from the highest test concentration specified in the sample information chapter. Automated fluorescence microscopy was carried out using a GE Healthcare InCell Analyzer 1000, and images were collected with a 4× objective. Twelve bit tiff images were acquired using the InCell Analyzer 1000 3.2 and analyzed with Developer Toolbox 1.6 software.
Cell proliferation was measured by the signal intensity of the incorporated nuclear dye. The cell proliferation assay output is referred to as the relative cell count. To determine the cell proliferation end point, the cell proliferation data output is transformed to percent of control (POC) using the following formula: […]
Relative cell count IC50 (IC50) is the test compound's concentration that produces 50% of the cell proliferation inhibitory response or 50% cytotoxicity level. IC50 values were calculated using nonlinear regression to fit data to a sigmoidal 4 point, 4 parameter One-Site dose response model, where: y (fit)=A+[(B−A)/(1+((C/x)̂D))]. […]

[1] = share of the cell lines of the panel

SMILES: CC[C@@H]1CNC2(CC2)CN1C(=O)[C@@H]1C[C@@H](F)CN1C(=O)C1=C(C(C)C)N2C(=N[C@@](C)(c3ccc(Cl)nc3)[C@H]2c2ccc(Cl)c(F)c2)S1 [Compound A, [(5R,6S)-5-(4-Chloro-3-fluorophenyl)-6-(6-chloropyridin-3-yl)-6-methyl-3-(propan-2-yl)-5,6-dihydroimidazo[2,1-b][1,3]thiazol-2-yl][(2S,4R)-2-{[(6R)-6-ethyl-4,7-diazaspiro[2.5]oct-7-yl]carbonyl}-4-fluoropyrrolidin-1-yl]methanone]
- IC50 (Homo sapiens, range over all cell lines of the panel, read-out: Cell line IC50 values ranged): ≥ 120 nM
- cell lines with IC50 values of <1 μM [1]: Approximately 25%
- cell lines with IC50 values of >10 μM [1]: approximately 70%
